Data: patent US6844353B2, “Fungicidal properties of sampangine and its analogs to agriculturally important fungal plant pathogens” (The United States of America as represented by the …, priority 2003, dated 2005)
Read-outs that look alike come from different tables or passages of the source.

Columns and labels:
Assay in all cases: 96-well microtiter plate assay, fungal growth inhibition
F. oxysporum = assay type: cell-based, Fusarium oxysporum; conditions: for inhibition at 0.3 µM / inhibition at 3 µM / inhibition at 30 µM: Fusarium oxysporum, read-out: Percent inhibition−Percent Stimulation±SEM; for Percent inhibition−Percent Stimulation±SEM: F. oxysporum
Excerpt: (§1) Pathogen production. Isolates of Colletotrichum acutatum Simmonds, Colletotrichum fragariae Brooks, and Colletotrichum gloeosporioides (Penz.) Penz. & Sacc. in Penz. were obtained from B. J. Smith, USDA, ARS, Small Fruit Research Station, Poplarville, Miss. Colletotrichum fragariae (isolate CF63), C. acutatum (isolate CAGoff), and C. gloeosporioides (isolate CG162) were used for all pathogen and bioautography studies. Isolate CF63 is one of the most virulent isolates at infecting strawberry plants and inducing both crown and fruit rot (Smith and Black, 1990). CF63, CAGoff, and CG162 were used as standard test isolates because of our extensive knowledge of these isolates and their known fungicide sensitivity profiles in both bioautography and microtiter formats. The three Colletotrichum species were isolated from strawberry (Fragaria x ananassa Duchesne). Botrytis cinerea Pers.: Fr, was isolated from commercial grape (Vitis vinifera L.) and Fusarium oxysporum Schlechtend: Fr from orchid (Cynoches sp.). Phomopsis viticola (Sacc.) and P. obscurans (Ellis & Everh.) Sutton were from Mike A. Ellis, Ohio State University, Wooster, Ohio. Fungi were grown on potato-dextrose agar (PDA, Difco, Detroit, Mich.) in 9 cm petri dishes and incubated in a growth chamber at 24±2° C. and under cool-white fluorescent lights ([…]·m^−2·sec^−1 light) with 12 hour photoperiod.
(§2) Inoculum preparation. Conidia were harvested from 7-10 day-old cultures by flooding plates with 5 mL of sterile distilled water and dislodging conidia by softly brushing the colonies with an L-shaped glass rod. Conidial suspensions were filtered through sterile miracloth (Calbiochem-Novabiochem Corp., La Jolla, Calif.) to remove mycelia. Conidia concentrations were determined photometrically, from a standard curve based on the percent of transmittance (% T) at 625 nm and suspensions were then adjusted with sterile distilled water to a concentration of 1.0×10^6 conidia/mL.
(§3) Microtiter assay. A standardized 96-well microtiter plate assay developed for discovery of natural product fungicidal agents was used to evaluate naturally occurring antifungal agents from Macaranga monanara. A 96-well microtiter assay was used to determine sensitivity of B. cinerea, C. acutatum, C. fragariae, C. gloeosporioides, F. oxysporum, Phomopsis viticola, and P. obscurans to the various antifungal agents in comparison with known fungicidal standards. Vinclozolin, captan, and thiabendazole, which represent three different modes of action, were used as standards in this experiment. Each fungus was challenged in a dose-response format using test compounds where the final treatment concentrations were 0.3, 3.0 and 30.0 μM. Microtiter plates (Nunc MicroWell, untreated; Roskilde, Denmark) were covered with a plastic lid and incubated in a growth chamber as described previously for fungal growth. Growth was then evaluated by measuring absorbance of each well at 620 nm using a microplate photometer (Packard Spectra Count, Packard Instrument Co., Downers Grove, Ill.). Microtiter plates (Nunc MicroWell, untreated; Roskilde, Denmark) were covered with a plastic lid and incubated in a growth chamber at 24±1° C. and 12 hour photoperiod under 60±5 μmol light. Growth was then evaluated by measuring absorbance of each well at 620 nm using a microplate photometer (Packard Spectra Count, Packard Instrument Co., Downers Grove, Ill.).
(§4) Microbioassy Experimental Design. Chemical sensitivity each of B. cinerea, C. acutatum, C. fragariae, C. gloeosporiodes, F. oxysporum, Phomopsis viticola, and P. obscurans was evaluated using 96-well plate microbioassay format. Each chemical was evaluated in duplicate at each dose (0.3, 3.0 and 30.0 μM). […]

C. gloeosporioides = assay type: cell-based, Colletotrichum gloeosporioides; conditions: for inhibition at 0.3 µM / inhibition at 3 µM / inhibition at 30 µM: Colletotrichum gloeosporioides, read-out: Percent inhibition−Percent Stimulation±SEM; for Percent inhibition−Percent Stimulation±SEM: C. gloeosporioides
Excerpt: as §1, §2, §3, §4

C. fragariae = assay type: cell-based, Colletotrichum fragariae; conditions: for inhibition at 0.3 µM / inhibition at 3 µM / inhibition at 30 µM: Colletotrichum fragariae, read-out: Percent inhibition−Percent Stimulation±SEM; for Percent inhibition−Percent Stimulation±SEM: C. fragariae
Excerpt: as §1, §2, §3, §4

C. acutatum = assay type: cell-based, Colletotrichum acutatum; conditions: for inhibition at 0.3 µM / inhibition at 3 µM / inhibition at 30 µM: Colletotrichum acutatum, read-out: Percent inhibition−Percent Stimulation±SEM; for Percent inhibition−Percent Stimulation±SEM: C. acutatum
Excerpt: as §1, §2, §3, §4

B. cinerea = assay type: cell-based, Botrytis cinerea; conditions: for inhibition at 0.3 µM / inhibition at 3 µM / inhibition at 30 µM: Botrytis cinerea, read-out: Percent inhibition−Percent Stimulation±SEM; for Percent inhibition−Percent Stimulation±SEM: B. cinerea
Excerpt: as §1, §2, §3, §4

Work on `CC1(C(=O)Nc2ccc(O)c(Cl)c2Cl)CCCCC1` [Fenhexamid] yielded an inhibition at 0.3 µM (F. oxysporum; 48 h) of 3 ± 4.4%, an inhibition at 3 µM (F. oxysporum; 48 h) of 15.3 ± 1.7% and an inhibition at 30 µM (F. oxysporum; 48 h) of 28.5 ± 1.3%. For the same compound, the inhibition at 0.3 µM (F. oxysporum; 72 h) was -0.1 ± 2.8%, the inhibition at 3 µM (F. oxysporum; 72 h) was 3.7 ± 2.6% and the inhibition at 30 µM (F. oxysporum; 72 h) was 21.2 ± 2.1%. For the same compound, the inhibition at 0.3 µM (C. gloeosporioides; 48 h) was -21.6 ± 9%, the inhibition at 3 µM (C. gloeosporioides; 48 h) was -32.5 ± 6.4% and the inhibition at 30 µM (C. gloeosporioides; 48 h) was -0.3 ± 3%. It also gave an inhibition at 0.3 µM (C. gloeosporioides; 72 h) of -11.3 ± 5.5%, an inhibition at 3 µM (C. gloeosporioides; 72 h) of -16 ± 2% and an inhibition at 30 µM (C. gloeosporioides; 72 h) of 6.5 ± 4.2%. It also gave an inhibition at 0.3 µM (C. fragariae; 48 h) of -30.2 ± 10%, an inhibition at 3 µM (C. fragariae; 48 h) of -13.6 ± 6.3% and an inhibition at 30 µM (C. fragariae; 48 h) of 19.9 ± 3.4%. For the same compound, the inhibition at 0.3 µM (C. fragariae; 72 h) was -12 ± 6.7%, the inhibition at 3 µM (C. fragariae; 72 h) was -9.9 ± 4.3% and the inhibition at 30 µM (C. fragariae; 72 h) was 19.5 ± 5.4%. The inhibition at 0.3 µM (C. acutatum; 48 h) was -21.6 ± 6.7%, the inhibition at 3 µM (C. acutatum; 48 h) was -6.5 ± 4.9% and the inhibition at 30 µM (C. acutatum; 48 h) was 13.8 ± 5.3%. The inhibition at 0.3 µM (C. acutatum; 72 h) was -20.4 ± 5.6%, the inhibition at 3 µM (C. acutatum; 72 h) was -21.8 ± 4.3% and the inhibition at 30 µM (C. acutatum; 72 h) was 1.5 ± 6.7%. It also gave an inhibition at 0.3 µM (B. cinerea; 48 h) of 82.9 ± 31.5%, an inhibition at 3 µM (B. cinerea; 48 h) of 34.2 ± 29.1% and an inhibition at 30 µM (B. cinerea; 48 h) of 49.2 ± 32.1%. It also gave an inhibition at 0.3 µM (B. cinerea; 72 h) of 71.4 ± 24.7%, an inhibition at 3 µM (B. cinerea; 72 h) of 42.7 ± 20.6% and an inhibition at 30 µM (B. cinerea; 72 h) of 40.9 ± 22.6%.

With `COc1cnc2c3c(nccc13)-c1ccccc1C2=O` [4-methoxysampangine] the “Percent inhibition−Percent Stimulation±SEM” value (F. oxysporum; 0.3 μM, 48 hrs) was −10.3 ± 4.7%, the “Percent inhibition−Percent Stimulation±SEM” value (F. oxysporum; 0.3 μM, 72 hrs) was 2.9 ± 4.2% and the “Percent inhibition−Percent Stimulation±SEM” value (F. oxysporum; 3.0 μM, 48 hrs) was −66.8 ± 5.5%. The “Percent inhibition−Percent Stimulation±SEM” value (F. oxysporum; 3.0 μM, 72 hrs) was −33.5 ± 1.9%, the “Percent inhibition−Percent Stimulation±SEM” value (F. oxysporum; 30 μM, 48 hrs) was −43.6 ± 2.7% and the “Percent inhibition−Percent Stimulation±SEM” value (F. oxysporum; 30 μM, 72 hrs) was −23.5 ± 1.6%. The “Percent inhibition−Percent Stimulation±SEM” value (C. gloeosporioides; 0.3 μM, 48 hrs) was −48.5 ± 6.7%, the “Percent inhibition−Percent Stimulation±SEM” value (C. gloeosporioides; 0.3 μM, 72 hrs) was −15.6 ± 1.9% and the “Percent inhibition−Percent Stimulation±SEM” value (C. gloeosporioides; 3.0 μM, 48 hrs) was −94.4 ± 0.9%. The “Percent inhibition−Percent Stimulation±SEM” value (C. gloeosporioides; 3.0 μM, 72 hrs) was −91.1 ± 2.1%, the “Percent inhibition−Percent Stimulation±SEM” value (C. gloeosporioides; 30 μM, 48 hrs) was −95.9 ± 3.4% and the “Percent inhibition−Percent Stimulation±SEM” value (C. gloeosporioides; 30 μM, 72 hrs) was −79.7 ± 6.0%. The “Percent inhibition−Percent Stimulation±SEM” value (C. fragariae; 0.3 μM, 48 hrs) was −15.0 ± 7.5%, the “Percent inhibition−Percent Stimulation±SEM” value (C. fragariae; 0.3 μM, 72 hrs) was −30.2 ± 7.4% and the “Percent inhibition−Percent Stimulation±SEM” value (C. fragariae; 3.0 μM, 48 hrs) was −75.2 ± 6.7%. The “Percent inhibition−Percent Stimulation±SEM” value (C. fragariae; 3.0 μM, 72 hrs) was −44.3 ± 6.5%, the “Percent inhibition−Percent Stimulation±SEM” value (C. fragariae; 30 μM, 48 hrs) was −67.9 ± 13.6% and the “Percent inhibition−Percent Stimulation±SEM” value (C. fragariae; 30 μM, 72 hrs) was −39.6 ± 6.3%. The “Percent inhibition−Percent Stimulation±SEM” value (C. acutatum; 0.3 μM, 48 hrs) was −5.1 ± 7.8%, the “Percent inhibition−Percent Stimulation±SEM” value (C. acutatum; 0.3 μM, 72 hrs) was −0.3 ± 6.4% and the “Percent inhibition−Percent Stimulation±SEM” value (C. acutatum; 3.0 μM, 48 hrs) was −75.1 ± 6.8%. The “Percent inhibition−Percent Stimulation±SEM” value (C. acutatum; 3.0 μM, 72 hrs) was −44.1 ± 6.5%, the “Percent inhibition−Percent Stimulation±SEM” value (C. acutatum; 30 μM, 48 hrs) was −51.3 ± 6.2% and the “Percent inhibition−Percent Stimulation±SEM” value (C. acutatum; 30 μM, 72 hrs) was −25.4 ± 5.4%. The “Percent inhibition−Percent Stimulation±SEM” value (B. cinerea; 0.3 μM, 48 hrs) was −23.0 ± 14.4%, the “Percent inhibition−Percent Stimulation±SEM” value (B. cinerea; 0.3 μM, 72 hrs) was −4.8 ± 12.6% and the “Percent inhibition−Percent Stimulation±SEM” value (B. cinerea; 3.0 μM, 48 hrs) was −59.2 ± 6.7%. The “Percent inhibition−Percent Stimulation±SEM” value (B. cinerea; 3.0 μM, 72 hrs) was −18.4 ± 5.4%, the “Percent inhibition−Percent Stimulation±SEM” value (B. cinerea; 30 μM, 48 hrs) was −20.3 ± 21.8% and the “Percent inhibition−Percent Stimulation±SEM” value (B. cinerea; 30 μM, 72 hrs) was 19.0 ± 14.3%.

With `O=C1c2ccccc2-c2nccc3c(Br)cnc1c23` [4-bromosampangine] the “Percent inhibition−Percent Stimulation±SEM” value (F. oxysporum; 0.3 μM, 48 hrs) was −20.4 ± 4.6%, the “Percent inhibition−Percent Stimulation±SEM” value (F. oxysporum; 0.3 μM, 72 hrs) was −2.8 ± 1.9% and the “Percent inhibition−Percent Stimulation±SEM” value (F. oxysporum; 3.0 μM, 48 hrs) was −42.3 ± 4.5%. For the same compound, the “Percent inhibition−Percent Stimulation±SEM” value (F. oxysporum; 3.0 μM, 72 hrs) was −14.0 ± 2.1%, the “Percent inhibition−Percent Stimulation±SEM” value (F. oxysporum; 30 μM, 48 hrs) was −25.8 ± 2.6% and the “Percent inhibition−Percent Stimulation±SEM” value (F. oxysporum; 30 μM, 72 hrs) was −9.1 ± 3.0%. The “Percent inhibition−Percent Stimulation±SEM” value (C. gloeosporioides; 0.3 μM, 48 hrs) was −100.0 ± 1.5%, the “Percent inhibition−Percent Stimulation±SEM” value (C. gloeosporioides; 0.3 μM, 72 hrs) was −99.0 ± 0.6% and the “Percent inhibition−Percent Stimulation±SEM” value (C. gloeosporioides; 3.0 μM, 48 hrs) was −98.9 ± 0.5%. For the same compound, the “Percent inhibition−Percent Stimulation±SEM” value (C. gloeosporioides; 3.0 μM, 72 hrs) was −99.1 ± 0.4%, the “Percent inhibition−Percent Stimulation±SEM” value (C. gloeosporioides; 30 μM, 48 hrs) was −96.0 ± 1.4% and the “Percent inhibition−Percent Stimulation±SEM” value (C. gloeosporioides; 30 μM, 72 hrs) was −99.7 ± 0.4%. For the same compound, the “Percent inhibition−Percent Stimulation±SEM” value (C. fragariae; 0.3 μM, 48 hrs) was −46.3 ± 5.0%, the “Percent inhibition−Percent Stimulation±SEM” value (C. fragariae; 0.3 μM, 72 hrs) was −15.2 ± 8.2% and the “Percent inhibition−Percent Stimulation±SEM” value (C. fragariae; 3.0 μM, 48 hrs) was −87.3 ± 2.0%. For the same compound, the “Percent inhibition−Percent Stimulation±SEM” value (C. fragariae; 3.0 μM, 72 hrs) was −45.8 ± 5.6%, the “Percent inhibition−Percent Stimulation±SEM” value (C. fragariae; 30 μM, 48 hrs) was −55.9 ± 7.1% and the “Percent inhibition−Percent Stimulation±SEM” value (C. fragariae; 30 μM, 72 hrs) was −26.7 ± 7.3%. The “Percent inhibition−Percent Stimulation±SEM” value (C. acutatum; 0.3 μM, 48 hrs) was −23.3 ± 8.0%, the “Percent inhibition−Percent Stimulation±SEM” value (C. acutatum; 0.3 μM, 72 hrs) was −7.1 ± 6.3% and the “Percent inhibition−Percent Stimulation±SEM” value (C. acutatum; 3.0 μM, 48 hrs) was −73.4 ± 6.8%. The “Percent inhibition−Percent Stimulation±SEM” value (C. acutatum; 3.0 μM, 72 hrs) was −24.9 ± 8.7%, the “Percent inhibition−Percent Stimulation±SEM” value (C. acutatum; 30 μM, 48 hrs) was −33.4 ± 6.9% and the “Percent inhibition−Percent Stimulation±SEM” value (C. acutatum; 30 μM, 72 hrs) was −10.5 ± 6.7%. The “Percent inhibition−Percent Stimulation±SEM” value (B. cinerea; 0.3 μM, 48 hrs) was −41.1 ± 9.4%, the “Percent inhibition−Percent Stimulation±SEM” value (B. cinerea; 0.3 μM, 72 hrs) was −22.6 ± 13.7% and the “Percent inhibition−Percent Stimulation±SEM” value (B. cinerea; 3.0 μM, 48 hrs) was −59.2 ± 6.7%. For the same compound, the “Percent inhibition−Percent Stimulation±SEM” value (B. cinerea; 3.0 μM, 72 hrs) was −38.8 ± 9.4%, the “Percent inhibition−Percent Stimulation±SEM” value (B. cinerea; 30 μM, 48 hrs) was −29.7 ± 9.7% and the “Percent inhibition−Percent Stimulation±SEM” value (B. cinerea; 30 μM, 72 hrs) was 2.5 ± 8.9%.
